From publication PMC11873650 (Acta Pharmaceutica Sinica. B, 2024)

How the values were obtained:
[1] = target: phosphorylated PAK4 (p-PAK4) (Homo sapiens, UniProt O96013); assay: Western blot of PAK4 phosphorylation in MIA PaCa-2 cells; assay type: cell-based; settings: for level of p-PAK4: MIA PaCa-2 cells, 1 μmol/L, 72 h
[2] = test system: phosphorylated β-Catenin (p-β-Catenin); assay: Western blot of β-Catenin phosphorylation in MIA PaCa-2 cells; assay type: cell-based, human; settings: for level of p-β-Catenin: MIA PaCa-2 cells, 1 μmol/L, 72 h
Pharmacokinetics in rats = assay type: in vivo; settings: rat, plasma
Pan02 allograft = assay: Pan02 syngeneic model; assay type: in vivo, C57BL/6 mice; settings: 100 mg/kg intraperitoneally three times per five days, 26 days
MIA PaCa-2 xenograft = settings: 100 mg/kg q.d. intraperitoneally

phosphorylated PAK4 (p-PAK4), sequence (O96013 whole entry): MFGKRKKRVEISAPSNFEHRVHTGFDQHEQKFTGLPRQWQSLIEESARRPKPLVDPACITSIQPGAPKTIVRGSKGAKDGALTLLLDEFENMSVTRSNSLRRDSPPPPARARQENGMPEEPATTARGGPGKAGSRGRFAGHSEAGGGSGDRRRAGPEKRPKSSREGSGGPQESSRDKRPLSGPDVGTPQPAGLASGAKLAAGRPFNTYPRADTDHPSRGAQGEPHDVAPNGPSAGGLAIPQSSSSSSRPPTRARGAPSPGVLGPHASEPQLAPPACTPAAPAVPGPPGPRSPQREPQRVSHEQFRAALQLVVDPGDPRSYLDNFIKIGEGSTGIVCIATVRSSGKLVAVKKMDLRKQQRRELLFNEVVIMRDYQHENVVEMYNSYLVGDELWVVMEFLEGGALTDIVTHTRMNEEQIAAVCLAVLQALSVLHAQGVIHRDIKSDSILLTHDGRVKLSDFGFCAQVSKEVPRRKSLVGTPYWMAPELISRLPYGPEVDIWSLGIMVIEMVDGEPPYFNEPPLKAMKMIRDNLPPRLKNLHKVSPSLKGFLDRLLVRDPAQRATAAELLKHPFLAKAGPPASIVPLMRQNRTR

level of p-PAK4 [1]	Structure (SMILES)	level of p-β-Catenin [2]	IC50 [1]	IC50 ([2]; Homo sapiens, MIA PaCa-2, 72 h, read-out: IC50 against p-β-Catenin)	AUC(0-t) (Pharmacokinetics in rats; iv, 1 mg/kg)	AUC(0-t) (Pharmacokinetics in rats; po, 3 mg/kg)	tumor growth inhibition (Pan02 allograft)	mortality (MIA PaCa-2 xenograft; 20-day study)	tumor growth inhibition rate (TGI) (MIA PaCa-2 xenograft; 20 days)
superior to 4	Nc1ccc(/C=C/C(=O)N2CCc3c(oc4c(-c5ccc(F)cc5)cc(-c5ccc(C(=O)N6CCC(F)(F)CC6)nn5)cc34)C2)cn1 [Compound 18, (E)-3-(6-Aminopyridin-3-yl)-1-(6-(6-(4,4-difluoropiperidine-1-carbonyl)pyridazin-3-yl)-8-(4-fluorophenyl)-3,4-dihydrobenzofuro[2,3-c]pyridin-2(1H)-yl)prop-2-en-1-one]	superior to 4							
	Nc1ccc(/C=C/C(=O)NCc2cc3cc(-c4ccc(C(=O)N5CCC(F)(F)CC5)cc4)cc(-c4ccc(F)cc4)c3o2)cn1 [Compound 4]		1890 nM	2070 nM	94400 ng·h/mL	55500 ng·h/mL	modest tumor growth inhibition	two mice	77.8%
superior to 4	Nc1ccc(/C=C/C(=O)N2CCc3c(oc4c(-c5ccc(F)cc5)cc(-c5ccc(C(=O)N6CCOCC6)nn5)cc34)C2)cn1 [Compound 19, (E)-3-(6-Aminopyridin-3-yl)-1-(8-(4-fluorophenyl)-6-(6-(morpholine-4-carbonyl)pyridazin-3-yl)-3,4-dihydrobenzofuro[2,3-c]pyridin-2(1H)-yl)prop-2-en-1-one]	superior to 4							
